The source of these data is ChEMBL document CHEMBL5727333, “3-amino-1,5,6,7-tetrahydro-4H-indol-4-ones” (2019).

In this assay the target is Mitotic checkpoint serine/threonine-protein kinase BUB1 (Homo sapiens, UniProt O43683). Kind of assay: Kinase Assay: In a typical assay 11 different concentrations of each compound (0.1 nM, 0.33 nM, 1.1 nM, 3.8 nM, 13 nM, 44 nM, 0.15 μM, 0.51 μM, 1.7 μM, 5.9 μM and 20 μM) were tested in duplicate within the same microtiter plate. To this end, 100-fold concentrated compound solutions (in DMSO) were previously prepared by serial dilution (1:3.4) of 2 mM stocks in a clear low volume 384-well source microtiter plate (Greiner Bio-One, Frickenhausen, Germany), from which 50 nl of compounds were transferred into a black low volume test microtiter plate from the same supplier. […] The resulting mixture (5 μL final volume) was incubated at 22° C. during 60 min., and the reaction was stopped by the addition of 5 μL of an aqueous EDTA-solution (50 mM EDTA, in 100 mM HEPES pH 7.5 and 0.2% (w/v) bovine serum albumin) which also contained the TR-FRET detection reagents (0.2 μM streptavidin-XL665 [Cisbio Bioassays, Codolet, France] and 1 nM anti-phosho-Serine antibody [Merck Millipore, cat. #35-002] and 0.4 nM LANCE EU-W1024 labeled anti-mouse IgG antibody [Perkin-Elmer, product no. AD0077, alternatively a Terbium-cryptate-labeled anti-mouse IgG antibody from Cisbio Bioassays can be used]). The stopped reaction mixture was further incubated 1 h at 22° C. in order to allow the formation of complexes between peptides and detection reagents. On the technique in general: In TR-FRET formats the signal depends on donor and acceptor labels being close together.
Mitotic checkpoint serine/threonine-protein kinase BUB1, sequence (O43683 whole entry): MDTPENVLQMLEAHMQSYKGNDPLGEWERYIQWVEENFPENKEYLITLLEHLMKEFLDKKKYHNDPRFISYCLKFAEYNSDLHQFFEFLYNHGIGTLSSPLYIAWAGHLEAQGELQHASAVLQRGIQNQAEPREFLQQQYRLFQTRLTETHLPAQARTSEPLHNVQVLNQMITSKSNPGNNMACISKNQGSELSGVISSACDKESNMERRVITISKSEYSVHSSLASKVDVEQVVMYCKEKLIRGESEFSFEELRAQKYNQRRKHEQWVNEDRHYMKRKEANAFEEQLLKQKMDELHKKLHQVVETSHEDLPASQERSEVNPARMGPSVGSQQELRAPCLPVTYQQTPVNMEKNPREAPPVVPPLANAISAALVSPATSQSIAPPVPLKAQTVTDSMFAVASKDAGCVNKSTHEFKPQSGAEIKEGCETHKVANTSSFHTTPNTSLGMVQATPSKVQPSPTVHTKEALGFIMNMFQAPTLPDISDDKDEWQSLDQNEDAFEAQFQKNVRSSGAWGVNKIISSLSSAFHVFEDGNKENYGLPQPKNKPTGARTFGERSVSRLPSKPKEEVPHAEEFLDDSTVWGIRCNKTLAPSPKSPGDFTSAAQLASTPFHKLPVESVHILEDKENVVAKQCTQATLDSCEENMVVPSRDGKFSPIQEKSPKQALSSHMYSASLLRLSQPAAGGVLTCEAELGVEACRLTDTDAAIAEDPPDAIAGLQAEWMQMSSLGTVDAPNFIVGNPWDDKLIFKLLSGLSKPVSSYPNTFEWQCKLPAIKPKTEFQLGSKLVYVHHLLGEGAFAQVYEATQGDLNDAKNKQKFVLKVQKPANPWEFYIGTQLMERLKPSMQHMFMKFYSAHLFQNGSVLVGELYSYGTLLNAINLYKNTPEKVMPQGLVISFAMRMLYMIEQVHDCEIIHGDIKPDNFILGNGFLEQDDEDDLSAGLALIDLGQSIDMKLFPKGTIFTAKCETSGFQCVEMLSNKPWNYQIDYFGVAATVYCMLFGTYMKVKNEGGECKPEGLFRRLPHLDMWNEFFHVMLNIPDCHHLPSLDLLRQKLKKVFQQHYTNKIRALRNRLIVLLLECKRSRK
For the compound `CS(=O)(=O)Nc1cc(-c2[nH]c3c(c2Nc2ccccc2)C(=O)CCC3)ccn1`, the IC50 (usually the concentration at which inhibition is half-maximal) is 6660 nM. The result for `CC(=O)Nc1cc(-c2[nH]c3c(c2Nc2ccc(F)cc2)C(=O)CCC3)ccn1` reads 58.9 nM. With `CC1(C)CC(=O)c2c([nH]c(-c3ccnc(Br)c3)c2Nc2ccccc2)C1` the figure was 99.8 nM; with `Cc1cccc(Nc2c(-c3ccncc3)[nH]c3c2C(=O)CC(C)(C)C3)c1F`, 85.5 nM. With `CC1(C)CC(=O)c2c([nH]c(-c3ccnc(NS(C)(=O)=O)c3)c2Nc2ccccc2)C1` the figure was 733 nM. As for `CC1(C)CC(=O)c2c([nH]c(-c3ccnc(Nc4cccc(F)c4)c3)c2Nc2cccc(F)c2)C1`, the IC50 was 497 nM.

In the case of `CC(C)Oc1cccc(Nc2c(-c3ccncc3)[nH]c3c2C(=O)CC(C)(C)C3)c1`, the IC50 was determined as 1170 nM. With `CC1(C)CC(=O)c2c([nH]c(-c3ccnc(Cl)c3)c2Nc2ccccc2)C1` the figure was 53.6 nM.
